How the values were obtained:
male Swiss Albino mice [1] = assay: Muscle weight (gastrocnemius, soleus) after 28 days; type: in vivo; settings: after 28 days of supplementation; vs vehicle control
Protocol: (§1) (2) paraxanthine (3) L-theanine; […] The dose administered to the mice was calculated using US Food and Drug Administration for human equivalence doses (HED), assuming a human weight of 60 kg. […] Dosing was conducted via oral gavage using disposable polypropylene syringes with sterilized stainless steel gavage tubes. The food intake and water consumption were monitored daily, and BW was recorded weekly. The last dose on day 28 was given 1 hour prior to testing. All animals were euthanized by 95% CO2 after 28 days of following their assigned treatment. Blood was collected immediately after euthanization by the retro-orbital route and was immediately centrifuged at 1500×g for 10 min at 4° C. before having all serum transferred into cryogenic tubes and stored at -80° C. The liver, heart, gastrocnemius and soleus were excised and weighed.

Nitric oxide = assay: Serum nitric oxide ELISA; type: in vivo, Swiss Albino mice; settings: serum after 28 days of treatment; for Nitric Oxide: mean ± SD, n = 8; for increase in nitric oxide levels over control: vs vehicle control
Protocol: (§2) After one week of acclimation, the animals were randomly divided by body weight into five groups (n=8 per group in each test) for oral treatment once a day, at approximately same time each day (±1 hour), for 28 consecutive days: (1) vehicle control; (2) paraxanthine (3) L-theanine; […] The dose administered to the mice was calculated using US Food and Drug Administration for human equivalence doses (HED), assuming a human weight of 60 kg. […] Dosing was conducted via oral gavage using disposable polypropylene syringes with sterilized stainless steel gavage tubes. The food intake and water consumption were monitored daily, and BW was recorded weekly. The last dose on day 28 was given 1 hour prior to testing. All animals were euthanized by 95% CO2 after 28 days of following their assigned treatment. Blood was collected immediately after euthanization by the retro-orbital route and was immediately centrifuged at 1500×g for 10 min at 4° C. before having all serum transferred into cryogenic tubes and stored at -80° C. The liver, heart, gastrocnemius and soleus were excised and weighed. Collected serum was analyzed for clinical biochemical variables including aspartate aminotransaminase (AST), alanine aminotransaminase (ALT), alkaline phosphatase (ALP), uric acid (UA), creatinine, total cholesterol (TC), triglycerides (TG), high-density lipoproteins (HDL), and low-density lipoproteins (LDL) were measured using an auto analyzer (EM360, ERBA Diagnostics Mannheim GmbH, Mannheim, Germany). Nitric oxide was analyzed using standard ELISA assay kits (Lot No: E-BC-[…], Elabscience, Houston, Tex., USA).

[2] = Clinical biochemical profiles of serum; type: in vivo, Swiss Albino mice; settings: serum at end of 28-day treatment; mean ± SD, n = 8
Protocol: as §2

male Swiss Albino mice [3] = assay: Treadmill endurance test; type: in vivo; settings: for Distance traveled on treadmill / increase in distance traveled during treadmill exercise compared to control: after 28 days of supplementation; for Distance traveled on treadmill: run until exhaustion, n=8; for Distance traveled on treadmill / Baseline treadmill performance (distance): mean ± SD; for increase in distance traveled during treadmill exercise compared to control: vs vehicle control
Protocol: (2) paraxanthine (3) L-theanine; […] The dose administered to the mice was calculated using US Food and Drug Administration for human equivalence doses (HED), assuming a human weight of 60 kg. […] Dosing was conducted via oral gavage using disposable polypropylene syringes with sterilized stainless steel gavage tubes. The food intake and water consumption were monitored daily, and BW was recorded weekly. The last dose on day 28 was given 1 hour prior to testing. […] All animals were adapted to this procedure daily 60 minutes after dosing for five days in a week during the treatment period. On 28th day of each respective treatment, all animals were subjected to a muscle endurance test. […] Animals were subjected to the treadmill test until exhaustion. Distance traveled (cm) was measured as a marker of exercise performance.

male Swiss Albino mice [4] = assay: Forelimb grip strength test; type: in vivo; settings: for Baseline forelimb grip strength: day 0 baseline, time holding steel bar, mean of three trials; for increase in forelimb grip strength compared to control: day 28, one hour after oral treatment, vs vehicle control
Protocol: After one week of acclimation, the animals were randomly divided by body weight into five groups (n=8 per group in each test) for oral treatment once a day, at approximately same time each day (±1 hour), for 28 consecutive days: (1) vehicle control; (2) paraxanthine (3) L-theanine; […] The dose administered to the mice was calculated using US Food and Drug Administration for human equivalence doses (HED), assuming a human weight of 60 kg. […] Dosing was conducted via oral gavage using disposable polypropylene syringes with sterilized stainless steel gavage tubes. The food intake and water consumption were monitored daily, and BW was recorded weekly. The last dose on day 28 was given 1 hour prior to testing. The forelimb grip strength was measured on day 0 and day 28 by using a stainless-steel grill to assess muscle strength (Orchid Scientific & Innovative India Pvt Ltd, India). Grip strength was measured one hour after treatment. Briefly, each mouse was placed on a grill chamber and the steel bar is inverted; grip strength is measured by recording the time each animal holds the steel bar. The maximum time for each trial was six minutes. Each animal performed three independent trials separated by six minutes intervals and the mean of the three trials was calculated.

[5] = Body weight during 28-day oral supplementation; type: in vivo, Swiss Albino mice; settings: mean ± SD, n = 8 mice
Protocol: (§3) Forty 8-week-old male Swiss Albino mice were housed in an animal room at a constant temperature (22±3° C.) and humidity (30%-70%) under a 12:12 h light-dark cycle with standard laboratory diet (Purina 5L79, Rat and Mouse 18% protein; PMI Nutrition International, Brentwood, Mo., USA). Distilled water was provided ad libitum. All animal experiments were reviewed and approved by the Institutional Animal Ethical Committee (IAEC) of Radiant Research Services Pvt. Ltd (Bangalore, India). All research was conducted in accordance with the guidelines of the committee for the purpose of control and supervision of experiments on animals (CPCSEA Registration Number-1803/PO/RcBi/S/2015/CPCSEA).
(§4) After one week of acclimation, the animals were randomly divided by body weight into five groups (n=8 per group in each test) for oral treatment once a day, at approximately same time each day (±1 hour), for 28 consecutive days: (1) vehicle control; (2) paraxanthine (3) L-theanine; (4) alpha-GPC; and (5) taurine. The dose administered to the mice was calculated using US Food and Drug Administration for human equivalence doses (HED), assuming a human weight of 60 kg. The following HED were used in this study: 100 mg paraxanthine, (ENFINITY™, Ingenious Ingredients, L.P Lewisville, Tex., USA; mouse dose: 20.5 mg/kg bw/day); 200 mg alpha-GPC mg (YangLing Daily Health Bio-Engineering Technology Co., Ltd; mouse dose: 41.09 mg/kg bw), 50 mg L-theanine (Hangzhou Qinyuan Natural Plant High-tech Co., Ltd; mouse dose: 10.28 mg/kg bw), and 500 mg taurine (Jiangyin Huachang Food Additive Co., Ltd; mouse dose: 102.75 mg/kg bw). 0.5% Carboxy Methyl Cellulose sodium was used as vehicle and the test item formulations were prepared daily. Dosing was conducted via oral gavage using disposable polypropylene syringes with sterilized stainless steel gavage tubes. The food intake and water consumption were monitored daily, and BW was recorded weekly. The last dose on day 28 was given 1 hour prior to testing.

[6] = Feed consumption during 28-day oral supplementation; type: in vivo, Swiss Albino mice; settings: mean ± SD, n = 8 mice
Protocol: as §3, §4

[7] = Liver and heart mass / gross pathology; type: in vivo, Swiss Albino mice; settings: after 28 days of treatment; mean ± SD, n = 8
Protocol: as §1

SMILES	increase in gastrocnemius muscle mass compared to control (male Swiss Albino mice [1])	increase in soleus muscle mass compared to control (male Swiss Albino mice [1])	Nitric Oxide (Nitric oxide) [ng/mL]	ALP [2] [U/L]	ALT [2] [U/L]	AST [2] [U/L]	Creatinine [2] [mg/dL]	Urea [2] [mg/dL]	Distance traveled on treadmill (male Swiss Albino mice [3])	increase in distance traveled during treadmill exercise compared to control (male Swiss Albino mice [3])	Baseline treadmill performance (distance) (male Swiss Albino mice [3]) [cm]	Baseline forelimb grip strength (male Swiss Albino mice [4])	increase in forelimb grip strength compared to control (male Swiss Albino mice [4])	body weight ([5]; Basal) [grams]	body weight ([5]; Week 1, oral once daily) [grams]	body weight ([5]; Week 2, oral once daily) [grams]	body weight ([5]; Week 3, oral once daily) [grams]	body weight ([5]; Week 4, oral once daily) [grams]	feed consumption ([6]; Week 1) [grams]	feed consumption ([6]; Week 2) [grams]	other results
C[N+](C)(C)CCOP(=O)([O-])OC[C@H](O)CO [Alpha-GPC, L-alpha glycerylphosphorylcholine]	no effect on muscle mass	no effect on muscle mass	9.21 ± 2.33	179.3 ± 3.99	23.63 ± 1.51	38.88 ± 2.10	0.90 ± 0.16	29.38 ± 1.41	1,695±53.0 centimeters	did not increase treadmill performance	248.6±42.2	91.00±0.40	8%	22.50 ± 0.44	24.10 ± 0.40	27.05 ± 0.50	29.14 ± 0.49	31.68 ± 0.44	40.91 ± 0.55	43.34 ± 0.40	increase in nitric oxide levels over control (Nitric oxide): 42%; feed consumption ([6]; Week 3): 45.49 ± 0.40 grams; feed consumption ([6]; Week 4): 47.54 ± 0.42 grams; Heart mass [7]: 189 ± 1.0 mg; Liver mass [7]: 1,869 ± 32 mg
CCNC(=O)CC[C@H](N)C(=O)O [L-Theanine, L-theanine]	5%	but not soleus muscle mass	10.23 ± 1.26	177.1 ± 3.68	24.25 ± 1.28	40.25 ± 2.44	0.89 ± 0.11	28.75 ± 1.28	1,710±127 centimeters	13%	265.4±32.9	87.90±2.63	12%	22.41 ± 0.49	24.20 ± 0.56	26.76 ± 0.71	29.00 ± 0.60	31.60 ± 0.64	41.26 ± 0.86	43.50 ± 0.66	increase in nitric oxide levels over control (Nitric oxide): 57%; feed consumption ([6]; Week 3): 45.30 ± 0.48 grams; feed consumption ([6]; Week 4): 47.60 ± 0.51 grams; Heart mass [7]: 189 ± 2.3 mg; Liver mass [7]: 1,866 ± 43 mg
Cn1c(=O)[nH]c2ncn(C)c2c1=O [Paraxanthine, 1,7-dimethylxanthine]	14%	41%	13.06 ± 0.58	179.4 ± 2.56	23.88 ± 0.99	39.50 ± 1.60	0.86 ± 0.11	29.13 ± 0.99	2,100±133 centimeters	39%	255.3±30.7	90.60±0.92	17%	22.01 ± 0.40	23.86 ± 0.55	26.95 ± 0.41	29.68 ± 0.45	32.80 ± 0.48	41.73 ± 046	43.89 ± 0.68	increase in nitric oxide levels over control (Nitric oxide): 101%; feed consumption ([6]; Week 3): 46.00 ± 0.59 grams; feed consumption ([6]; Week 4): 48.34 ± 0.68 grams; Heart mass [7]: 190 ± 1.4 mg; Liver mass [7]: 1,870 ± 31 mg
NCCS(=O)(=O)O [Taurine, taurine]	no effect on muscle mass	no effect on muscle mass	7.56 ± 0.29	180.4 ± 5.42	25.00 ± 1.07	40.13 ± 2.36	0.93 ± 0.14	29.38 ± 1.60	1,671±125 centimeters	did not increase treadmill performance	256.9±29.3	90.94±0.85	failed to reach statistical significance	22.50 ± 0.49	24.08 ± 0.66	26.99 ± 0.82	29.06 ± 0.69	32.34 ± 3.06	40.95 ± 0.60	43.21 ± 1.25	feed consumption ([6]; Week 3): 45.21 ± 1.15 grams; feed consumption ([6]; Week 4): 47.36 ± 1.08 grams; Heart mass [7]: 190 ± 1.2 mg; Liver mass [7]: 1,834 ± 52 mg
